The text below walks through data of US8993593B2, “N-(4-(6-fluoro-3,4-dihydroisoquinolin-2(1H)-yl)-2,6-dimethylphenyl)-3,3-dimethylbutanamide as potassium channel modulators” (Valeant Pharmaceuticals International, priority 2006, dated 2015).

The subject of series [1] is mouse maximal electroshock seizure (MES) model. Description: Maximal electroshock seizure (MES) test, mouse. Conditions: Mus musculus, po; murine MES model, dosed orally 2 hours prior to testing; read-out: ED50, inhibition of seizures. In kind it is in vivo. From the text:
The MES testing protocol is based on procedures established at the National Institute of Neurological Disorders and Stroke in conjunction with the Anticonvulsant Screening Program (ASP) at the University of Utah (White, H. S., Woodhead, J. H., Wilcox, K. S., Stables, J. P., Kupferberg, H. J and Wolf, H. H. 2002. “General Principles: Discovery and Preclinical Development of Antiepileptic Drugs,” in Antiepileptic Drugs, 5th Edition, R. H. Levy, ed.; R. H. Mattson, B. S. Meldrum, and E. Perucca. Philadelphia, Lippincott Williams & Wilkins.), The goal of the test rapid identification and characterization of the in vivo anticonvulsant activity of any compounds that have been shown active in PC-12 cellular based Rb^+ efflux assay.
Adult male CF-I albino mice (18-25 g, Charles River Laboratories) are exclusively used for in-house MES screen of compounds. Male Sprague-Dawley albino rats (100-125 g, Charles River Laboratories) are also used to test anticonvulsant compounds. Variability of test outcomes is reduced by using animals of the same sex, age, and weight. Animals are permitted to rest and recover from transit for at least 48 hr prior to experimentation. Animals are used for AED testing only once. In some instances, the animals may be anesthetized prior to blood collection and/or whole brain extraction for pharmacokinetic assay. All animals are maintained and handled as outlined in standard animal care guidelines.
In the experiments, testing compounds are prepared as suspensions in 0.5% methyl cellulose (Sigma, Cat #M0512, Viscosity 4000 cP at 20° C.) in water, regardless of solubility. Dry powder compounds are initially ground with a glass rod in a test tube in several drops of methyl cellulose to create a paste and to break down any large chunks. After several minutes of grinding, the volume of the suspension is increased to the final concentration desired. The suspension is then sonicated using a Branson sonicator model 3510 in a water bath at room temperature for 15 minutes. Compound suspensions are further vortexed prior to animal dosing. In some of the cases, DMSO is used to initially solubilize compounds in small volumes and then this solution is added to the 0.5% methyl cellulose solution, in order to create more even and less aggregated compound suspensions. The final concentration of DMSO is 3.75%, an amount with no apparent toxicity or neuroprotective effects in our usual rotarod and MES tests. Methyl cellulose/DMSO compound suspensions are identically prepared for intraperitoneally (i.p.) to mice or orally (p.o.) to rat dosing.
Initially the animals are weighed with an electronic scale and then marked. Data recording sheets are generated for each compound assessment. Mice or rats are dosed with the compound suspension at 0.01 mL/g of body weight. The typical injection volume range is between 180-250 μl for mice. […] Rats are p.o. dosed using a flexible feeding tube, typically starting at a compound dose of 5 mg/kg.
A Rodent Electroconvulsive Stimulator (Model 200, Hamit-Darvin-Freesh, Snow Canyon Clinic, Ivins, Utah) is used for MES testing. A 60-Hz alternating current (50 mA for mice; 150 mA for rats) is delivered for 0.2 seconds through corneal electrodes to the mice. A drop of 0.5% tetracaine (Sigma, Cat. #T-7508) solution is placed on the eye prior to current delivery. The electrodes are subsequently placed gently onto the eyes of the animal and the electrical shock is initiated by triggering through a foot-pedal activator. The animals are restrained by hand and gently released as the shock is delivered and the seizure commences. Animals are monitored for hind limb tonic extension as the end point for this test. Current delivery is recorded as a measure of overall seizure-induction potential. Electrical current delivery can vary from approximately 30-55 mA (mice) or 90-160 mA (rats) depending on impedance in the animal and quality of the current delivery (ie. correct placement of the electrodes on the cornea). […]
Background: The maximal electroshock test induces tonic seizures with an electrical stimulus.

A short description of series [2]: Rotarod test (motor impairment, acute toxicity). The conditions noted are these: CF-1, in vivo, oral; behavioral rotarod model, mouse. Here is the method:
Prior to MES testing, compound dosed mice are scrutinized for abnormal neurologic status as defined by motor impairment on a slowly turning (6 rpm) rotarod apparatus (Model 755, Series 8, IITC Life Sciences, Woodland Hills, Calif.). […] These measurements are done at the same time points as the MES assay. Untreated normal mice are able to maintain balance on the rotarod for at least one minute without falling. Median toxicity of a compound (TD50, the dose of a drug that results in motor impairment in 50% of animals) is determined.

Series [3] in a line: Open field test (acute toxicity). The conditions noted are these: Sprague-Dawley, in vivo, oral, rat, read-out: TD50, motor impairment. From the text:
Before MES test, compound treated rats are visually observed for acute toxicity signs for approximately one minute in the open field test. Here, rats are gently placed into a plexiglass enclosure and are monitored for behavior consistent with toxicity including ataxia, trembling, hypoactivity (including failure to seek the walls), hypersensitivity, lack of exploratory behavior and lack of avoidance of the open area. […] Motor impairment, as judged by this test was not observed in the rat model and generated a TD50 value of greater than 5 mg/kg.

Each structure is given as a SMILES string.

By ED50 is commonly meant the dose at which the effect has come halfway, by size or by number of responders. As a reminder, the TD50 is the 50% point of the dose-response relation for the toxic effect studied.

Take `Cc1cc(N2CCc3cc(F)ccc3C2)cc(C)c1NC(=O)CC(C)(C)C` [compound A, N-[4-(6-fluoro-3,4-dihydro-1H-isoquinolin-2-yl)-2,6-dimethylphenyl]-3,3-dimethyl butanamide]: the median effective dose (ED50) in series [1] was found to be 2.2 mg/kg. Besides, the TD50 at 2 h in series [2] was 12.6 mg/kg. For the same molecule, in series [3], the TD50 at 1 min was greater than 5 mg/kg.
